# Columns and labels:
# [1] = target: 5-hydroxytryptamine receptor 2A (Homo sapiens, UniProt P28223); assay: The compound was tested for the binding affinity towards human cloned 5-hydroxytryptamine 2A receptor in HEK293 cells, using [3H]ketanserin as radioligand; type: cell-based
# [2] = target: D(3) dopamine receptor (Homo sapiens, UniProt P35462); assay: The compound was tested for the binding affinity towards human cloned Dopamine receptor D3 in CHO cells, using [125I]iodosulpride as radioligand; type: cell-based
# [3] = target: T1, Alpha-1B adrenergic receptor (Homo sapiens, UniProt P35368); assay: The compound was tested for the binding affinity towards Alpha-1B adrenergic receptor
# T1 sequence (P35368 whole entry): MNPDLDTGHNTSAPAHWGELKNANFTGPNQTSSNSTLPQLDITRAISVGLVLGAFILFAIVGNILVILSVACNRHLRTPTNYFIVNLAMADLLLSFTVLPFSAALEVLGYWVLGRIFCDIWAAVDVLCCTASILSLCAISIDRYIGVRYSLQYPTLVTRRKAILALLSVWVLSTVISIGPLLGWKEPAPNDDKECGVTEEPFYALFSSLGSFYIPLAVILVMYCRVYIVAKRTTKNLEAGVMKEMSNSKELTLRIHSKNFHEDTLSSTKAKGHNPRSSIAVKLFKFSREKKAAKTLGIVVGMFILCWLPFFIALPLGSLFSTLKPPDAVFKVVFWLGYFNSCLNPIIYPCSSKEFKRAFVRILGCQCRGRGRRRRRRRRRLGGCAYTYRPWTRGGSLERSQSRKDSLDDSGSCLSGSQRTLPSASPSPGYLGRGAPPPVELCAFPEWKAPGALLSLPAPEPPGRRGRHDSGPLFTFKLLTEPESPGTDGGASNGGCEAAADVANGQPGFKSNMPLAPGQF
# [4] = target: 5-hydroxytryptamine receptor 2B (Homo sapiens, UniProt P41595); assay: The compound was tested for the binding affinity towards human cloned 5-hydroxytryptamine 2B receptor in HEK293 cells, using [3H]5-HT as radioligand; type: cell-based
# [5] = target: 5-hydroxytryptamine receptor 7 (Homo sapiens, UniProt P34969); assay: The compound was tested for the binding affinity towards human cloned 5-hydroxytryptamine 7 receptor in HEK293 cells, using [3H]5-CT as radioligand; type: cell-based
# [6] = target: 5-hydroxytryptamine receptor 1D (Homo sapiens, UniProt P28221); assay: The compound was tested for the binding affinity towards human cloned 5-hydroxytryptamine 1D receptor in CHO cells, using [3H]5-HT as radioligand; type: cell-based
# [7] = target: T2, 5-hydroxytryptamine receptor 1F (Homo sapiens, UniProt P30939); assay: The compound was tested for the binding affinity towards human cloned 5-hydroxytryptamine 1F receptor in CHO cells, using [3H]5-HT as radioligand; type: cell-based
# T2 sequence (P30939 whole entry): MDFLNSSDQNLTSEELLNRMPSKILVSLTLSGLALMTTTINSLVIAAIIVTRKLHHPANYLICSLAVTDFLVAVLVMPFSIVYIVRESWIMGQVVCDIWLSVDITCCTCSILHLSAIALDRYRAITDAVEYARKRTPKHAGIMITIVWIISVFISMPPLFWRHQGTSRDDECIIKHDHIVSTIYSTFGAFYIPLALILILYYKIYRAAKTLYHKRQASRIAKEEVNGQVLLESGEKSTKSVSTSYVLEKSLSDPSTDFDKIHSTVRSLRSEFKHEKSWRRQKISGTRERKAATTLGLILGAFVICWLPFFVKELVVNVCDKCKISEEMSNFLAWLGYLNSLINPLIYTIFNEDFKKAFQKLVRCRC
# [8] = target: 5-hydroxytryptamine receptor 1E (Homo sapiens, UniProt P28566); assay: The compound was tested for the binding affinity towards human cloned 5-hydroxytryptamine 1E receptor in CHO cells, using [3H]5-HT as radioligand; type: cell-based
# [9] = target: T3, 5-hydroxytryptamine receptor 6 (Homo sapiens, UniProt P50406); assay: The compound was tested for the binding affinity towards human cloned 5-hydroxytryptamine 6 receptor in HeLa cells, using […] as radioligand; n=3; type: cell-based
# [10] = target: T4, 5-hydroxytryptamine receptor 1A (Homo sapiens, UniProt P08908); assay: The compound was tested for the binding affinity towards human cloned 5-hydroxytryptamine 1A receptor in HEK293 cells, using [3H]8-OH-DPAT as radioligand; type: cell-based
# T4 sequence (P08908 whole entry): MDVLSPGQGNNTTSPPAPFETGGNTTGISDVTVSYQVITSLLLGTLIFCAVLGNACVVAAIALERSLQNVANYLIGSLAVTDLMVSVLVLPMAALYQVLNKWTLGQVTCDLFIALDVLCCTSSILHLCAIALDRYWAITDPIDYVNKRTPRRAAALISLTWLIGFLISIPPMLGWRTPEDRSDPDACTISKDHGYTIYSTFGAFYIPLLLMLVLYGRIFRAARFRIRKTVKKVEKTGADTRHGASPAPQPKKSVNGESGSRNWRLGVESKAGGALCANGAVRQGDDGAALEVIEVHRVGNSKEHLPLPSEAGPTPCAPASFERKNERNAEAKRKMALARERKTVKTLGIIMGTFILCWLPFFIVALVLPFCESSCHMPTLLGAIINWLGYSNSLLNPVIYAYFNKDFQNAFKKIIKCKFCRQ
# [11] = target: 5-hydroxytryptamine receptor 4 (Homo sapiens, UniProt Q13639); assay: The compound was tested for the binding affinity towards human cloned 5-hydroxytryptamine 4 receptor in HeLa cells, using [3H]LSD as radioligand; type: cell-based
# [12] = target: D(2) dopamine receptor (Homo sapiens, UniProt P14416); assay: The compound was tested for the binding affinity towards human cloned Dopamine receptor D2 in CHO cells, using [125I]iodosulpride as radioligand; type: cell-based
# [13] = target: T5, 5-hydroxytryptamine receptor 2C (Homo sapiens, UniProt P28335); assay: The compound was tested for the binding affinity towards human cloned 5-hydroxytryptamine 2C receptor in HEK293 cells, using […] as radioligand; type: cell-based
# T5 sequence (P28335 whole entry): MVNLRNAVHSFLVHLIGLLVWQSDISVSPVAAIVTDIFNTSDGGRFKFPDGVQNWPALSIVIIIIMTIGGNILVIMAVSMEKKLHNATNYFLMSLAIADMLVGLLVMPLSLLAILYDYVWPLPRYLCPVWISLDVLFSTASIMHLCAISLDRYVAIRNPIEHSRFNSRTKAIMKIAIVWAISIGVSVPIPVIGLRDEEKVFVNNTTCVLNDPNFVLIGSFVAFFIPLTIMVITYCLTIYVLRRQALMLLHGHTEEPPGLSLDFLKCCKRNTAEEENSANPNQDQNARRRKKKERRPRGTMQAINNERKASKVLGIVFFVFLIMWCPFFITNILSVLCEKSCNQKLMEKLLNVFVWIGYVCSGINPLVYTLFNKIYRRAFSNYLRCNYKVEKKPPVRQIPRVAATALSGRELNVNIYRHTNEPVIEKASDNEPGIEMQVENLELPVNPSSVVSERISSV
# [14] = target: 5-hydroxytryptamine receptor 1B (Homo sapiens, UniProt P28222); assay: The compound was tested for the binding affinity towards human cloned 5-hydroxytryptamine 1B receptor in CHO cells, using [3H]5-HT as radioligand; type: cell-based
# [15] = target: T3, 5-hydroxytryptamine receptor 6; assay: The compound was tested for the binding affinity towards human cloned 5-hydroxytryptamine 6 receptor in HeLa cells, using […] as radioligand; n=9; type: cell-based
# Chain of 5-hydroxytryptamine receptor 2B (P41595 whole entry): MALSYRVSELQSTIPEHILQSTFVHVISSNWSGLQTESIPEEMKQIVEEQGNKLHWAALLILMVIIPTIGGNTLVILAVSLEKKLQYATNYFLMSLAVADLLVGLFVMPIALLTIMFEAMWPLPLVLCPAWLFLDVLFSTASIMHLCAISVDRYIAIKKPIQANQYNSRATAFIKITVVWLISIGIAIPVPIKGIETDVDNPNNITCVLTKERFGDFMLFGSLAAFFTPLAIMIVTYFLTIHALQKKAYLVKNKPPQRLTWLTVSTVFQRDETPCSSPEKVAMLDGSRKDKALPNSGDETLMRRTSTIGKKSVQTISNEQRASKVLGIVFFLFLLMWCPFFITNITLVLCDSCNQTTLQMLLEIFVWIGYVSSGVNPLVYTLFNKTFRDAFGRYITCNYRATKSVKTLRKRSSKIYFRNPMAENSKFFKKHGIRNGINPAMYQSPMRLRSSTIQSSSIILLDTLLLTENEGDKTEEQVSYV
# Chain of 5-hydroxytryptamine receptor 1E (P28566 whole entry): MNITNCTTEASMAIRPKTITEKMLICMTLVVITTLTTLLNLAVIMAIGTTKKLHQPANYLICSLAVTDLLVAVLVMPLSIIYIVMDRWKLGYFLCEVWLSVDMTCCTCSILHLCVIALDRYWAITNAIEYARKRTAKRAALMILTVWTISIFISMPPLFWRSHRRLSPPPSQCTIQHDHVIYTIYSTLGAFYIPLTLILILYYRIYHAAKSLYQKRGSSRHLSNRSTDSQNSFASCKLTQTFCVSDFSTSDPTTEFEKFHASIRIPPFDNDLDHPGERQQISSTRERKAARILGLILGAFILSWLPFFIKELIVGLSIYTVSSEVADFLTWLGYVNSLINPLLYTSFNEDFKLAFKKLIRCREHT
# Chain of 5-hydroxytryptamine receptor 4 (Q13639 whole entry): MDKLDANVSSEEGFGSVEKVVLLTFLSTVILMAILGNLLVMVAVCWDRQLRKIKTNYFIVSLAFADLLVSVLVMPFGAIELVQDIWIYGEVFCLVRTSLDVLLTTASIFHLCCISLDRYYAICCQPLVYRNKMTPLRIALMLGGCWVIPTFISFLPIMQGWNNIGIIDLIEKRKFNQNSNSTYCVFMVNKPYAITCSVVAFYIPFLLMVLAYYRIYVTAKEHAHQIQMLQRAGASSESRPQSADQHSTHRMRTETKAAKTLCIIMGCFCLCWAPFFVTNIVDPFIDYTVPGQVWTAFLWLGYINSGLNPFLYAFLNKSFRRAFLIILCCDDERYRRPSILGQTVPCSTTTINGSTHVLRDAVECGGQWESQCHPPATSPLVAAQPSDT
# Chain of D(2) dopamine receptor (P14416 whole entry): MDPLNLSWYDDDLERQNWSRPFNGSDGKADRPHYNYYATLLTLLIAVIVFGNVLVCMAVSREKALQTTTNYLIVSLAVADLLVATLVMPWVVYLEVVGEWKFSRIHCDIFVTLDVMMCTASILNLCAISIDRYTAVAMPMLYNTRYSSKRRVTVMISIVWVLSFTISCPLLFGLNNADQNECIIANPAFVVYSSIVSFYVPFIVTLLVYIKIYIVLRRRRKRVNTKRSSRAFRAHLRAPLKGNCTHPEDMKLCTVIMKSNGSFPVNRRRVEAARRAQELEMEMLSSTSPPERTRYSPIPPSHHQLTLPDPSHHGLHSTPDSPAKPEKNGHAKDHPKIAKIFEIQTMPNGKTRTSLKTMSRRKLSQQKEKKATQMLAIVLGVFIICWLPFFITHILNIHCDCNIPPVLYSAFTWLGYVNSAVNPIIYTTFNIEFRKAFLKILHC
# Chain of 5-hydroxytryptamine receptor 1D (P28221 whole entry): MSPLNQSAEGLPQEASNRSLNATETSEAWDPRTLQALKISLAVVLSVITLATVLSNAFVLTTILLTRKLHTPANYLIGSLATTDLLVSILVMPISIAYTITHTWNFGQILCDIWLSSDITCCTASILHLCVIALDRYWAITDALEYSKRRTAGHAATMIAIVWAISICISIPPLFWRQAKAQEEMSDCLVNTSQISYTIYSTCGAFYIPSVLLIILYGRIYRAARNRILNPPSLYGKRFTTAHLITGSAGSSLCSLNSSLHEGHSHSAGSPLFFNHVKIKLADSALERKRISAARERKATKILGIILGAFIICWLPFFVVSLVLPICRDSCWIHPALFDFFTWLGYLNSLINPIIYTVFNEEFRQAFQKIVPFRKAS
# Chain of 5-hydroxytryptamine receptor 7 (P34969 whole entry): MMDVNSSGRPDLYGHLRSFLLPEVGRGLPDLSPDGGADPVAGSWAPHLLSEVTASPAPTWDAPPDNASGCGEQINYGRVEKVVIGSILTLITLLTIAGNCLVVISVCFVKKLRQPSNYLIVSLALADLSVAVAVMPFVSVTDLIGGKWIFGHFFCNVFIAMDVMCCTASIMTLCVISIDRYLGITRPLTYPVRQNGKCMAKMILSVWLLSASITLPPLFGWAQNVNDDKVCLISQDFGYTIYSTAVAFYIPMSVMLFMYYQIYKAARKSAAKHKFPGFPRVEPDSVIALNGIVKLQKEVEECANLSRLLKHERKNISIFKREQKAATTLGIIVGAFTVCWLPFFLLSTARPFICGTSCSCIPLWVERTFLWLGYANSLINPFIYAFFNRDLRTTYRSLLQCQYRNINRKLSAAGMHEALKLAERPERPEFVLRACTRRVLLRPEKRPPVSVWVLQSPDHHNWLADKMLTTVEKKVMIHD
# Chain of 5-hydroxytryptamine receptor 1B (P28222 whole entry): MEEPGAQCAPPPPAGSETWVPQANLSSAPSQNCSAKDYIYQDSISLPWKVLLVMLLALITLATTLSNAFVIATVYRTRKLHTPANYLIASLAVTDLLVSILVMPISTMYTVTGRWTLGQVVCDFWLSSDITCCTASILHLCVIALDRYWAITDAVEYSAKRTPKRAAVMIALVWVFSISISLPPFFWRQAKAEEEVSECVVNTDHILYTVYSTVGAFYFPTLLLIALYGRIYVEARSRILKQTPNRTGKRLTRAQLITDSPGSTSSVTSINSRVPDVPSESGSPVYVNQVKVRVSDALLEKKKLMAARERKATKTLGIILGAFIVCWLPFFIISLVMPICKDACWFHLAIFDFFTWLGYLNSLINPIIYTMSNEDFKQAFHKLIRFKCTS
# Chain of D(3) dopamine receptor (P35462 whole entry): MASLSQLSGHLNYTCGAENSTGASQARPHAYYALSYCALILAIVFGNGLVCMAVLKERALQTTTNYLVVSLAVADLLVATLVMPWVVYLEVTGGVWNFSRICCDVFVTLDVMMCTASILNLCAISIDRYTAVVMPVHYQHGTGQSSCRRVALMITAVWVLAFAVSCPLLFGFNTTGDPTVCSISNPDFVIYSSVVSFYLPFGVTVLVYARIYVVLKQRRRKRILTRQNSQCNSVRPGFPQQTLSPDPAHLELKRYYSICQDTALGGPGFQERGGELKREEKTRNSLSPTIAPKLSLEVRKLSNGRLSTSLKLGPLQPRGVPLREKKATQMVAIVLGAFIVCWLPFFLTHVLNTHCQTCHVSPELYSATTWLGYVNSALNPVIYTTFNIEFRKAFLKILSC
# T3 sequence (P50406 whole entry): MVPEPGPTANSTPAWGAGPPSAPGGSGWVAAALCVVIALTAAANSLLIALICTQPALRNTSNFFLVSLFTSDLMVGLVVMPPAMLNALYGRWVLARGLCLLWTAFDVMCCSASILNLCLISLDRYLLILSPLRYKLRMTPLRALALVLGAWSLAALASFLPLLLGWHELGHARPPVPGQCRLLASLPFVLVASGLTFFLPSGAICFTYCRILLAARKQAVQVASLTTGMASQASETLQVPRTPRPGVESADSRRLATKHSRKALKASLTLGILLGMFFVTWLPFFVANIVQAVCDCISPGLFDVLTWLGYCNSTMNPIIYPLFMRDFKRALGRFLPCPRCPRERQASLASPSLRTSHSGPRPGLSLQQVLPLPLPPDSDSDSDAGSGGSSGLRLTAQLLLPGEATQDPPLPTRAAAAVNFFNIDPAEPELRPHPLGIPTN
# Chain of 5-hydroxytryptamine receptor 2A (P28223 whole entry): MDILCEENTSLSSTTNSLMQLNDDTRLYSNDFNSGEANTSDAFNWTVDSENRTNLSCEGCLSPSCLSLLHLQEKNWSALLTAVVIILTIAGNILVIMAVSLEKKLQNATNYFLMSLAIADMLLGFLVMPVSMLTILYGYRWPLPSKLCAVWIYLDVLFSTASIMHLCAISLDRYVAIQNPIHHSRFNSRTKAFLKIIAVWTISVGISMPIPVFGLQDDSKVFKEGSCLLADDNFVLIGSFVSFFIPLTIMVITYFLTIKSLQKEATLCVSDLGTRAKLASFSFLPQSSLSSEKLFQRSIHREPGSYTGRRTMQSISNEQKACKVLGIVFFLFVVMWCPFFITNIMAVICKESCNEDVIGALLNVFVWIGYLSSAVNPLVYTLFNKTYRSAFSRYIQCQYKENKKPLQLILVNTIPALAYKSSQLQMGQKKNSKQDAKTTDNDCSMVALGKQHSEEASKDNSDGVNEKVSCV
Structure (SMILES),Ki [1] [nM],Ki [2] [nM],Ki [3] [nM],Ki [4] [nM],Ki [5] [nM],Ki [6] [nM],Ki [7] [nM],Ki [8] [nM],Ki [9] [nM],Ki [10] [nM],Ki [11] [nM],Ki [12] [nM],Ki [13] [nM],Ki [14] [nM],Ki [15] [nM]
COc1ccc(NS(=O)(=O)c2sc3ccc(Cl)cc3c2C)cc1N1CCN2CCC[C@@H]2C1,1260,631,1000,1260,631,126,200,1000,0.794,200,1580,2000,631,631,–
COc1ccc(NS(=O)(=O)c2sc3ccc(Cl)cc3c2C)cc1N1CCN2CCCCC2C1 (configuration not stated),631,1000,2000,2000,> 7940,316,> 1000,> 1000,5.01,631,> 7940,398,> 3160,3980,–
COc1ccc(NS(=O)(=O)c2sc3ccc(Cl)cc3c2C)cc1N1CCN2CCC[C@H]2C1,251,316,1580,1260,1000,100,316,1580,–,126,5010,1580,398,631,0.794

# Source: ChEMBL document CHEMBL1135108, “Bicyclic piperazinylbenzenesulphonamides are potent and selective 5-HT6 receptor antagonists” (Bioorg Med Chem Lett, 2002)
